Assay results reported in patent US9023789B2, “Amylin analogs and pharmaceutical compositions thereof” (Novo Nordisk A/S, priority 2012, dated 2015).
Numbered stars: 1 amine (or outer) side, 2 acyl side, 3 side chain; on linkers, the order of the positions; unused ones are H or OH. Bridge positions count the residues as written; N and C are the ends. Side chains are listed from the residue outwards. Peptide text beside a SMILES is read from it. * marks the point of attachment. C20 diacid = O=C(O)CCCCCCCCCCCCCCCCCCC(=O)*; γGlu = O=C(O)[C@H](CCC(=O)[*:2])N[*:1]; AEEA = NCCOCCOCC(=O)O

Legend:
[1] = biological target: T1, rat amylin receptor (rat calcitonin receptor + rat RAMP 3) (Rattus norvegicus, UniProt P32214+Q9JJ73); assay: ASSAY (VI) binding to the rat amylin receptor; conditions: for IC50: binding to rat amylin receptor, read-out: rAmylin-R bind IC50
T1 construct: expressed in transfected cells; host or cells: BHK tk'ts 13 (transient, FuGENE 6), membranes
T1 sequence (P32214 25-479 isoform P32214-2 limits assumed): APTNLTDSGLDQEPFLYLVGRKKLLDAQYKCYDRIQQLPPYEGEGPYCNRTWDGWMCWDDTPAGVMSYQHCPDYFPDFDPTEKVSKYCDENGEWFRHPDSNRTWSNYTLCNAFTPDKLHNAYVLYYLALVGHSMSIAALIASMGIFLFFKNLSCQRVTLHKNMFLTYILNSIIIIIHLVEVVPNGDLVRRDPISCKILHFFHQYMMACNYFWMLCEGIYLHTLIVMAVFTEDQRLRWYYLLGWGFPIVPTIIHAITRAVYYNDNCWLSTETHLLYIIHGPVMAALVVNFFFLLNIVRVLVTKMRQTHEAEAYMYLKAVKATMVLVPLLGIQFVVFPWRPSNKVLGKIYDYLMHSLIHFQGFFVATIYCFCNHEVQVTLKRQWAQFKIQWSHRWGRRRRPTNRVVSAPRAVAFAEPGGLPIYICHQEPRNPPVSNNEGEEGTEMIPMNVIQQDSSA
T1 sequence (Q9JJ73 23-147 partner): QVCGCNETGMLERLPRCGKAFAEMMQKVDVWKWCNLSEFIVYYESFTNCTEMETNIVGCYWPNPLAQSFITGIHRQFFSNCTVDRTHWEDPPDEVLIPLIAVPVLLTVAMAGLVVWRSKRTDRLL
In short: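 Membranes for this rat amylin receptor binding assay came from BHK tk′ts 13 cells. The cells were transiently transfected with rat calcitonin receptor using the FuGENE® 6 reagent from Roche, as the manufacturer recommends. The cells were collected approximately 48 hours after transfection, and membranes were then prepared.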

[2] = ASSAY (III) ThT fibrillation assay for physical stability; format: physicochemical
In short: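 Physical stability scored by ThT fluorescence (444 nm excitation, 485 nm emission) tracked every 20 min during 37 °C incubation with 960 rpm shaking, ThT at 1 μM final. Values are replicate means with SD at chosen times; HPLC against pramlintide standard gives initial and post-assay soluble concentrations.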

[3] = Table 7, rat binding selectivity, rCTR IC50 / rAmylin-R IC50
[4] = Table 7a (preferred compounds), rat binding selectivity, rCTR IC50 / rAmylin-R IC50
[5] = ratio of rCTR bind IC50 to rAmylin-R bind IC50

| SMILES | IC50 ([1]; Table 7) | Ratio rCT/rAmylin binding [1, 3] | Ratio rCT/rAmylin binding [1, 4] | Ratio rCT/rAmylin binding [1, 5] | ThT pH 4.0 lag time (h) [2] |
| --- | --- | --- | --- | --- | --- |
| CC[C@H](C)[C@H](NC(=O)[C@H](C)NC(=O)CNC(=O)[C@H](Cc1ccccc1)NC(=O)[C@H](CC(N)=O)NC(=O)[C@@H]1CCCN1C(=O)[C@H](CO)NC(=O)[C@H](CO)NC(=O)[C@H](Cc1c[nH]cn1)NC(=O)[C@H](CCCNC(=N)N)NC(=O)[C@H](CC(C)C)NC(=O)[C@H](Cc1ccccc1)NC(=O)[C@H](CC(N)=O)NC(=O)[C@H](C)NC(=O)[C@H](CC(C)C)NC(=O)[C@H](CCCNC(=N)N)NC(=O)[C@H](CCC(N)=O)NC(=O)[C@@H](NC(=O)[C@H](C)NC(=O)[C@@H]1CSSC[C@H](NC(=O)[C@@H](N)CCCCNC(=O)COCCOCCNC(=O)COCCOCCNC(=O)CC[C@H](NC(=O)CCCCCCCCCCCCCCCCCCC(=O)O)C(=O)O)C(=O)N[C@@H](CC(N)=O)C(=O)N[C@@H]([C@@H](C)O)C(=O)N[C@@H](C)C(=O)N[C@@H]([C@@H](C)O)C(=O)N1)[C@@H](C)O)C(=O)N1CCC[C@H]1C(=O)N[C@@H](CO)C(=O)N[C@@H](CO)C(=O)N[C@H](C(=O)N[C@@H](CC(N)=O)C(=O)N[C@H](C(=O)NCC(=O)N[C@@H](CO)C(=O)N[C@@H](CCC(=O)O)C(=O)N[C@H](C(=O)N[C@@H](Cc1ccc(O)cc1)C(N)=O)[C@@H](C)O)C(C)C)[C@@H](C)O [Example 25] | 3.48 nM | 37.7 | 37.7 | 37.7 | 2 h |
| CC[C@H](C)[C@H](NC(=O)[C@H](C)NC(=O)CNC(=O)[C@H](Cc1ccccc1)NC(=O)[C@H](CC(N)=O)NC(=O)[C@@H]1CCCN1C(=O)[C@H](CO)NC(=O)[C@H](CO)NC(=O)[C@H](Cc1c[nH]cn1)NC(=O)[C@H](CCCNC(=N)N)NC(=O)[C@H](CC(C)C)NC(=O)[C@H](Cc1ccccc1)NC(=O)[C@H](CC(N)=O)NC(=O)[C@H](C)NC(=O)[C@H](CC(C)C)NC(=O)[C@H](CCCNC(=N)N)NC(=O)[C@H](CCC(N)=O)NC(=O)[C@@H](NC(=O)[C@H](C)NC(=O)[C@@H]1CSSC[C@H](NC(=O)[C@@H](N)CCCCNC(=O)COCCOCCNC(=O)CC[C@H](NC(=O)CCCCCCCCCCCCCCCCCCC(=O)O)C(=O)O)C(=O)N[C@@H](CC(N)=O)C(=O)N[C@@H]([C@@H](C)O)C(=O)N[C@@H](C)C(=O)N[C@@H]([C@@H](C)O)C(=O)N1)[C@@H](C)O)C(=O)N1CCC[C@H]1C(=O)N[C@@H](CO)C(=O)N[C@@H](CO)C(=O)N[C@H](C(=O)N[C@@H](CC(N)=O)C(=O)N[C@H](C(=O)NCC(=O)N[C@@H](CO)C(=O)N[C@@H](CCC(=O)O)C(=O)N[C@H](C(=O)N[C@@H](Cc1ccc(O)cc1)C(N)=O)[C@@H](C)O)C(C)C)[C@@H](C)O [Example 26] (H-K([AEEA-γGlu-C20 diacid])CNTATCATQRLANFLRHSSPNFGAIPSSTNVGSETY-NH2; disulfide 2-7; N-terminus assumed) | 0.491 nM | 309.2 | 309.2 | 309.2 | 12 h |
| CC[C@H](C)[C@H](NC(=O)[C@H](C)NC(=O)CNC(=O)[C@H](Cc1ccccc1)NC(=O)[C@H](CC(N)=O)NC(=O)[C@@H]1CCCN1C(=O)[C@H](CO)NC(=O)[C@H](CO)NC(=O)[C@H](Cc1c[nH]cn1)NC(=O)[C@H](CCCNC(=N)N)NC(=O)[C@H](CC(C)C)NC(=O)[C@H](Cc1ccccc1)NC(=O)[C@H](CC(N)=O)NC(=O)[C@H](C)NC(=O)[C@H](CC(C)C)NC(=O)[C@H](CCCNC(=N)N)NC(=O)[C@H](CCC(N)=O)NC(=O)[C@@H](NC(=O)[C@H](C)NC(=O)[C@@H]1CSSC[C@H](NC(=O)[C@@H](N)CCCCNC(=O)CC[C@H](NC(=O)CCCCCCCCCCCCCCCCCCC(=O)O)C(=O)O)C(=O)N[C@@H](CC(N)=O)C(=O)N[C@@H]([C@@H](C)O)C(=O)N[C@@H](C)C(=O)N[C@@H]([C@@H](C)O)C(=O)N1)[C@@H](C)O)C(=O)N1CCC[C@H]1C(=O)N[C@@H](CO)C(=O)N[C@@H](CO)C(=O)N[C@H](C(=O)N[C@@H](CC(N)=O)C(=O)N[C@H](C(=O)NCC(=O)N[C@@H](CO)C(=O)N[C@@H](CCC(=O)O)C(=O)N[C@H](C(=O)N[C@@H](Cc1ccc(O)cc1)C(N)=O)[C@@H](C)O)C(C)C)[C@@H](C)O [Example 27] | 0.614 nM | 146.8 | 146.8 | 146.8 | 28 h |
| CC[C@H](C)[C@H](NC(=O)[C@H](C)NC(=O)CNC(=O)[C@H](Cc1ccccc1)NC(=O)[C@H](CC(N)=O)NC(=O)[C@@H]1CCCN1C(=O)[C@H](CO)NC(=O)[C@H](CO)NC(=O)[C@H](Cc1c[nH]cn1)NC(=O)[C@H](CCCNC(=N)N)NC(=O)[C@H](CC(C)C)NC(=O)[C@H](Cc1ccccc1)NC(=O)[C@H](CC(N)=O)NC(=O)[C@H](C)NC(=O)[C@H](CC(C)C)NC(=O)[C@H](CCCNC(=N)N)NC(=O)[C@H](CCC(N)=O)NC(=O)[C@@H](NC(=O)[C@H](C)NC(=O)[C@@H]1CSSC[C@H](NC(=O)[C@H](CCCCN)NC(=O)CC[C@H](NC(=O)CCCCCCCCCCCCCCCCCCC(=O)O)C(=O)O)C(=O)N[C@@H](CC(N)=O)C(=O)N[C@@H]([C@@H](C)O)C(=O)N[C@@H](C)C(=O)N[C@@H]([C@@H](C)O)C(=O)N1)[C@@H](C)O)C(=O)N1CCC[C@H]1C(=O)N[C@@H](CO)C(=O)N[C@@H](CO)C(=O)N[C@H](C(=O)N1CCC[C@H]1C(=O)N[C@H](C(=O)NCC(=O)N[C@@H](CO)C(=O)N[C@@H](CCC(=O)O)C(=O)N[C@H](C(=O)N[C@@H](Cc1ccc(O)cc1)C(N)=O)[C@@H](C)O)C(C)C)[C@@H](C)O [Example 28] ({C20 diacid-γGlu}-KCNTATCATQRLANFLRHSSPNFGAIPSSTPVGSETY-NH2; disulfide 2-7 (inferred)) | 1.22 nM | 44.9 | 44.9 | 44.9 | 40 h |
| CC[C@H](C)[C@H](NC(=O)[C@H](C)NC(=O)CNC(=O)[C@H](Cc1ccccc1)NC(=O)[C@H](CC(N)=O)NC(=O)[C@@H]1CCCN1C(=O)[C@H](CO)NC(=O)[C@H](CO)NC(=O)[C@H](Cc1c[nH]cn1)NC(=O)[C@H](CCCNC(=N)N)NC(=O)[C@H](CC(C)C)NC(=O)[C@H](Cc1ccccc1)NC(=O)[C@H](Cc1c[nH]cn1)NC(=O)[C@H](C)NC(=O)[C@H](CC(C)C)NC(=O)[C@H](CCCNC(=N)N)NC(=O)[C@H](CCC(N)=O)NC(=O)[C@@H](NC(=O)[C@H](C)NC(=O)[C@@H]1CSSC[C@H](NC(=O)[C@H](CCCCN)NC(=O)CC[C@H](NC(=O)CCCCCCCCCCCCCCCCCCC(=O)O)C(=O)O)C(=O)N[C@@H](CC(N)=O)C(=O)N[C@@H]([C@@H](C)O)C(=O)N[C@@H](C)C(=O)N[C@@H]([C@@H](C)O)C(=O)N1)[C@@H](C)O)C(=O)N1CCC[C@H]1C(=O)N[C@@H](CO)C(=O)N[C@@H](CO)C(=O)N[C@H](C(=O)N[C@@H](CC(N)=O)C(=O)N[C@H](C(=O)NCC(=O)N[C@@H](CO)C(=O)N[C@@H](CCC(=O)O)C(=O)N[C@H](C(=O)N[C@@H](Cc1ccc(O)cc1)C(N)=O)[C@@H](C)O)C(C)C)[C@@H](C)O [Example 30] ({C20 diacid-γGlu}-KCNTATCATQRLAHFLRHSSPNFGAIPSSTNVGSETY-NH2; disulfide 2-7) | 3.14 nM | 36.1 | 36.1 | 36.1 | 16 h |
| CC[C@H](C)[C@H](NC(=O)[C@H](C)NC(=O)CNC(=O)[C@H](Cc1ccccc1)NC(=O)[C@H](CC(N)=O)NC(=O)[C@@H]1CCCN1C(=O)[C@H](CO)NC(=O)[C@H](CO)NC(=O)[C@H](Cc1c[nH]cn1)NC(=O)[C@H](CCCNC(=N)N)NC(=O)[C@H](CC(C)C)NC(=O)[C@H](Cc1ccccc1)NC(=O)[C@H](CCC(=O)O)NC(=O)[C@H](C)NC(=O)[C@H](CC(C)C)NC(=O)[C@H](CCCNC(=N)N)NC(=O)[C@H](CCC(N)=O)NC(=O)[C@@H](NC(=O)[C@H](C)NC(=O)[C@@H]1CSSC[C@H](NC(=O)[C@H](CCCCN)NC(=O)CC[C@H](NC(=O)CCCCCCCCCCCCCCCCCCC(=O)O)C(=O)O)C(=O)N[C@@H](CC(N)=O)C(=O)N[C@@H]([C@@H](C)O)C(=O)N[C@@H](C)C(=O)N[C@@H]([C@@H](C)O)C(=O)N1)[C@@H](C)O)C(=O)N1CCC[C@H]1C(=O)N[C@@H](CO)C(=O)N[C@@H](CO)C(=O)N[C@H](C(=O)N[C@@H](CC(N)=O)C(=O)N[C@H](C(=O)NCC(=O)N1CCC[C@H]1C(=O)N[C@@H](CC(N)=O)C(=O)N[C@H](C(=O)N[C@@H](Cc1ccc(O)cc1)C(N)=O)[C@@H](C)O)C(C)C)[C@@H](C)O [Example 32] ({C20 diacid-γGlu}-KCNTATCATQRLAEFLRHSSPNFGAIPSSTNVGPNTY-NH2; disulfide 2-7) | 0.176 nM | 34.0 | 34.0 | 34.0 | 45 h |
